Reference: ChEMBL document CHEMBL1126059 (J Med Chem, 1992)
Where a SMILES comes first, the peptide text is derived from it. [ ]: non-standard residue; d: D form. The star is where a group is joined. Boc = CC(C)(C)OC(=O)*; OBn = c1ccc(CO*)cc1; For = O=C*

Target: T1, Substance-P receptor (Cavia porcellus, UniProt P30547)
Assay: Displacement of specific binding of [3H]SP to tachykinin receptor 1 from the isolated guinea pig tracheal strips; call rule not given here

T1 sequence (P30547 whole entry): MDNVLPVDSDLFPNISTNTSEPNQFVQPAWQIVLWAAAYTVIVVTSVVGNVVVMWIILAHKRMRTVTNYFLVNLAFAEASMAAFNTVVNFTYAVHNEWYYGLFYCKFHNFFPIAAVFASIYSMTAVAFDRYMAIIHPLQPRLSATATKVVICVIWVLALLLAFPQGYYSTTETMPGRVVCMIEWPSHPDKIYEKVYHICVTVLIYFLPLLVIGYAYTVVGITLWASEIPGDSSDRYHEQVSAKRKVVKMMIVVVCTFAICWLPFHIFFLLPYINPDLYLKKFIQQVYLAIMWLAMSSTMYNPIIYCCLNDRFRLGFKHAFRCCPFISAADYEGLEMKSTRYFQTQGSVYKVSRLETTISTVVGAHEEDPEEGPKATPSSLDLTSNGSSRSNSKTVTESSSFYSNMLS

Compound	IC50 [nM]
C[C@@H](O)[C@H](NC(=O)OC(C)(C)C)C(=O)N[C@H](Cc1cn(C=O)c2ccccc12)C(=O)N[C@@H](Cc1ccccc1)C(=O)OCc1ccccc1 (Boc-Thr-[dW](For)-Phe-OBn)	110
O=C(N[C@@H](Cc1ccccc1)C(=O)N[C@H](Cc1c[nH]c2ccccc12)C(=O)N[C@H](Cc1c[nH]c2ccccc12)C(=O)O)OCc1ccccc1	> 100000
NC(=O)CC[C@H](NC(=O)[C@H](CCC(N)=O)NC(=O)[C@H]1CCCN1)C(=O)N[C@H](Cc1c[nH]c2ccccc12)C(=O)N[C@@H](Cc1ccccc1)C(=O)N[C@H](Cc1c[nH]c2ccccc12)C(=O)N[C@H](Cc1c[nH]c2ccccc12)C(=O)N[C@@H](Cc1ccccc1)C(N)=O	600
CC(C)(C)OC(=O)N[C@@H](CCC(N)=O)C(=O)N[C@H](Cc1cn(C=O)c2ccccc12)C(=O)N1Cc2ccccc2CC1C(=O)OCc1ccccc1 (stereo not given in full)	140
NC(=O)CC[C@H](N)C(=O)N[C@H](Cc1cn(C=O)c2ccccc12)C(=O)N[C@@H](Cc1ccccc1)C(=O)OCc1ccccc1	210
O=C1CC[C@@H](C(=O)N[C@H](Cc2c[nH]c3ccccc23)C(=O)N[C@@H](Cc2ccccc2)C(=O)O)N1	> 100000
CC(C)(C)OC(=O)N[C@@H](CCC(N)=O)C(=O)N[C@H](Cc1cn(C=O)c2ccccc12)C(=O)N[C@@H](Cc1ccccc1)C(=O)OCc1ccc(Cl)cc1	1000
NC(=O)CC[C@H](NC(=O)[C@H]1CCCN1C(=O)OCc1ccccc1)C(=O)N[C@@H](CCC(N)=O)C(=O)OCc1ccccc1	10000
CC(C)(C)OC(=O)N1CCC[C@@H]1C(=O)N[C@@H](CCC(N)=O)C(=O)N[C@@H](CCC(N)=O)C(N)=O	> 100000
NC(=O)[C@@H](Cc1c[nH]c2ccccc12)NC(=O)[C@H](Cc1ccccc1)NC(=O)[C@@H](Cc1c[nH]c2ccccc12)NC(=O)OCc1ccccc1	> 100000
O=C(N[C@H](Cc1c[nH]c2ccccc12)C(=O)N[C@@H](Cc1ccccc1)C(=O)N[C@H](Cc1c[nH]c2ccccc12)C(=O)O)OCc1ccccc1	23800
CSCC[C@@H](NC(=O)[C@H](CCC(N)=O)NC(=O)OC(C)(C)C)C(=O)N[C@@H](Cc1ccccc1)C(=O)OCc1ccccc1	790
CC(C)(C)OC(=O)N1CCC[C@@H]1C(=O)N[C@@H](CCC(N)=O)C(=O)N[C@@H](CCC(N)=O)C(=O)OCc1ccccc1	100000
CC(C)(C)OC(=O)N[C@@H](CCC(N)=O)C(=O)N[C@H](Cc1cn(C=O)c2ccccc12)C(=O)N[C@@H](Cc1ccc(O)cc1)C(=O)OCc1ccccc1	390
CC(C)(C)OC(=O)N[C@@H](CCC(N)=O)C(=O)N[C@H](Cc1c[nH]c2ccccc12)C(=O)N[C@@H](Cc1ccccc1)C(=O)O	> 100000
CC(C)(C)OC(=O)N[C@@H](CO)C(=O)N[C@H](Cc1cn(C=O)c2ccccc12)C(=O)N[C@@H](Cc1ccccc1)C(=O)OCc1ccccc1 (Boc-Ser-[dW](For)-Phe-OBn)	110
NC(=O)CC[C@H](NC(=O)[C@H](CCC(N)=O)NC(=O)[C@H]1CCCN1)C(=O)O	> 100000
CC(C)(C)OC(=O)N[C@@H](CCC(N)=O)C(=O)N[C@H](Cc1cn(C=O)c2ccccc12)C(=O)N[C@H](Cc1ccccc1)C(=O)OCc1ccccc1	770
CC(C)(C)OC(=O)N[C@H](Cc1c[nH]c2ccccc12)C(=O)N[C@H](Cc1c[nH]c2ccccc12)C(=O)N[C@@H](Cc1ccccc1)C(=O)OCc1ccccc1	> 100000

Compound	IC50 [nM]
CC(C)(C)OC(=O)N[C@@H](CCC(N)=O)C(=O)N[C@H](Cc1cn(C=O)c2ccccc12)C(=O)N1C(C(=O)c2ccccc2)CC[C@H]1C(=O)OCc1ccccc1 (stereo not given in full)	450
CC(C)(C)OC(=O)N[C@@H](CCC(N)=O)C(=O)N[C@H](Cc1cn(C=O)c2ccccc12)C(=O)N[C@@H](Cc1ccccc1)C(=O)OCc1ccccc1	90
CC(C)(C)OC(=O)N[C@@H](CCC(N)=O)C(=O)N[C@@H](Cc1ccccc1)C(=O)N[C@@H](Cc1ccccc1)C(=O)OCc1ccccc1	1000
CC(C)(C)OC(=O)N[C@@H](Cc1ccc(O)cc1)C(=O)N[C@H](Cc1cn(C=O)c2ccccc12)C(=O)N[C@@H](Cc1ccccc1)C(=O)OCc1ccccc1	260
CC(C)(C)OC(=O)N[C@@H](CCC(N)=O)C(=O)N[C@H](Cc1c[nH]c2ccccc12)C(=O)N[C@@H](Cc1ccccc1)C(=O)OCc1ccccc1	550
NC(=O)CC[C@H](NC(=O)[C@@H]1CCC(=O)N1)C(=O)N[C@H](Cc1c[nH]c2ccccc12)C(=O)O	> 100000
CC(C)C[C@@H](NC(=O)[C@H](CCC(N)=O)NC(=O)OC(C)(C)C)C(=O)N[C@@H](Cc1ccccc1)C(=O)OCc1ccccc1	1000
CC(C)(C)OC(=O)N[C@@H](CCC(N)=O)C(=O)N[C@@H](Cc1cn(C=O)c2ccccc12)C(=O)N[C@@H](Cc1ccccc1)C(=O)OCc1ccccc1	360
O=C(N[C@@H](Cc1ccccc1)C(=O)N[C@H](Cc1c[nH]c2ccccc12)C(=O)N[C@H](Cc1c[nH]c2ccccc12)C(=O)OCc1ccccc1)OCc1ccccc1	100000
CC(C)(C)OC(=O)N[C@@H](CCC(N)=O)C(=O)N[C@H](Cc1ccccc1)C(=O)N[C@@H](Cc1ccccc1)C(=O)OCc1ccccc1	380
CC(C)(C)OC(=O)N[C@@H](CCC(N)=O)C(=O)N[C@H](Cc1cn(C=O)c2ccccc12)C(=O)N[C@@H](Cc1ccccc1)C(=O)OCC1CCCCC1	400
CC(C)(C)OC(=O)N[C@@H](CCC(N)=O)C(=O)N[C@H](Cc1c[nH]c2ccccc12)C(=O)N[C@@H](Cc1ccccc1)C(N)=O	38700
O=C(N[C@H](Cc1c[nH]c2ccccc12)C(=O)N[C@@H](Cc1ccccc1)C(=O)N[C@H](Cc1c[nH]c2ccccc12)C(=O)OCc1ccccc1)OCc1ccccc1	10000
NC(=O)CC[C@H](NC(=O)OCc1ccccc1)C(=O)N[C@@H](CCC(N)=O)C(=O)N[C@H](Cc1c[nH]c2ccccc12)C(=O)O	> 100000
CC(C)(C)OC(=O)N[C@@H](CCC(N)=O)C(=O)N[C@H](Cc1cn(C=O)c2ccccc12)C(=O)N[C@@H](Cc1ccccc1)C(=O)OCCc1ccccc1	500
CC(C)(C)OC(=O)NCC(=O)N[C@H](Cc1cn(C=O)c2ccccc12)C(=O)N[C@@H](Cc1ccccc1)C(=O)OCc1ccccc1	420
CN(C(=O)[C@@H](Cc1cn(C=O)c2ccccc12)NC(=O)[C@H](CCC(N)=O)NC(=O)OC(C)(C)C)[C@@H](Cc1ccccc1)C(=O)OCc1ccccc1	240
CC(C)(C)OC(=O)N[C@@H](CCC(N)=O)C(=O)N[C@H](Cc1cn(C=O)c2ccccc12)C(=O)N[C@@H](Cc1ccccc1)C(=O)O	> 100000

Target: T1, Substance-P receptor
Assay: In vitro inhibitory concentration that gave 50% displacement of specific binding of [3H]SP to Tachykinin receptor 1 from the isolated guinea pig tracheal strips; No inhibition at 10E-4 M.

Compound	IC50
CC(C)(C)OC(=O)N[C@@H](CCC(N)=O)C(=O)N[C@H](Cc1cn(C=O)c2ccccc12)C(=O)NCC(=O)OCc1ccccc1	Not Active
CC(C)[C@H](NC(=O)[C@@H](Cc1cn(C=O)c2ccccc12)NC(=O)[C@H](CCC(N)=O)NC(=O)OC(C)(C)C)C(=O)OCc1ccccc1	Not Active
CC(C)(C)OC(=O)N[C@@H](CCC(N)=O)C(=O)N[C@H](Cc1cn(C=O)c2ccccc12)C(=O)N1CCC[C@H]1C(=O)OCc1ccccc1	Not Active
